Laboratory results taken from patent US11180462B2, “Microbiocidal oxadiazole derivatives” (SYNGENTA PARTICIPATIONS AG, priority 2015, dated 2021).

Assays:
Phakopsora Pachyrhizi = test: Fungicidal activity against Phakopsora pachyrhizi / soybean / leaf disc preventative (Asian soybean rust); type: in vivo; conditions: foliar, 200 ppm in the applied formulation, soybean leaf disks, compared to untreated control leaf disks, read-out: disease control
In short: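 Scored 12 to 14 days post-application as percent control relative to untreated check discs, rust spores were sprayed under the disc one day after compound treatment. Incubation: 20°C, 75% rh, first 24–36 h in darkness, then 12 h daily light; discs kept on water agar.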

[1] = system: Puccinia recondita f. Sp. Tritici; test: Fungicidal activity against Puccinia recondita f. sp. tritici / wheat / leaf disc curative (brown rust); type: in vivo; conditions: foliar, 24 h, 200 ppm in the applied formulation, wheat leaf segments, curative (applied 1 day after inoculation), compared to untreated control leaf disks, read-out: disease control
In short: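 % disease control vs untreated, scored 6–8 d post-application. Wheat cv. Kanzler segments, spore-inoculated, dark 19° C/75% RH; formulated cpd applied 1 d post-inoc; then 19° C, 75% RH, 12 h L/12 h D.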

[2] = system: Puccinia recondita f. Sp. Tritici; test: Fungicidal activity against Puccinia recondita f. sp. tritici / wheat / leaf disc preventative (brown rust); type: in vivo; conditions: foliar, 200 ppm in the applied formulation, wheat leaf segments, preventative, compared to untreated control leaf disks, read-out: disease control
In short: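 200 ppm spray on wheat cv. Kanzler leaf segments; spore inoculation +1 day; 19° C., 75% rh, 12 h/12 h light cycle; single rating of % control vs untreated at 7 to 9 days.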

[3] = system: Glomerella lagenarium (Colletotrichum lagenarium); test: Fungicidal activity against Glomerella lagenarium (Colletotrichum lagenarium) liquid culture / cucumber / preventative (anthracnose); type: cell-based; conditions: Colletotrichum orbiculare; 20 ppm in the applied formulation; liquid culture (PDB), growth inhibition measured photometrically after 3 to 4 days; compared to untreated control; read-out: disease control
In short: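 Percent activity against the untreated check was derived from photometric growth measurements made 2 to 7 days after conidia in potato dextrose broth were combined with compound at 20 ppm. Cultures were kept dark at 24 °C and 96% humidity.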

O=C(OCCN(Cc1ccc(-c2noc(C(F)(F)F)n2)cc1)C(=O)C1CCOC1)C1CCOC1 (stereo not drawn) [Compound 1.712, 2-(tetrahydrofuran-3-carbonyl-[[4-[5-(trifluoromethyl)-1,2,4-oxadiazol-3-yl]phenyl]methyl]-amino]ethyl tetrahydrofuran-3-carboxylate]
≥ 80%: pest or weed control at 200 ppm (Phakopsora Pachyrhizi) | pest or weed control at 200 ppm [1] | pest or weed control at 200 ppm [2]

CC1(C(=O)N(CCO)Cc2ccc(-c3noc(C(F)(F)F)n3)cc2)COC1 [Compound 1.721, N-(2-hydroxyethyl)-3-methyl-N-[[4-[5-(trifluoromethyl)-1,2,4-oxadiazol-3-yl]phenyl]methyl]-oxetane-3-carboxamide]
≥ 80%: pest or weed control at 200 ppm (Phakopsora Pachyrhizi) | pest or weed control at 200 ppm [1] | pest or weed control at 200 ppm [2]

CCOCC(=O)N(Cc1ccc(-c2noc(C(F)(F)F)n2)cc1)C(C)CC (stereo not drawn) [Compound 1.383, 2-ethoxy-N-sec-butyl-N-[[4-[5-(trifluoromethyl)-1,2,4-oxadiazol-3-yl]phenyl]methyl]-acetamide]
≥ 80%: pest or weed control at 200 ppm (Phakopsora Pachyrhizi) | pest or weed control at 200 ppm [1] | pest or weed control at 200 ppm [2]

CCCN(Cc1ccc(-c2noc(C(F)(F)F)n2)cc1)C(=O)CC(F)(F)F [Compound 1.667, 3,3,3-trifluoroN-propyl-N-[[4-[5-(trifluoromethyl)-1,2,4-oxadiazol-3-yl]phenyl]methyl]-propanamide]
≥ 80%: pest or weed control at 200 ppm (Phakopsora Pachyrhizi) | pest or weed control at 200 ppm [1] | inhibition of growth at 20 ppm [3]

CON(Cc1ccc(-c2noc(C(F)(F)F)n2)cc1)C(=O)N1CCOCC1 [Compound 3.1, N-methoxy-N-[[4-[5-(trifluoromethyl)-1,2,4-oxadiazol-3-yl]phenyl]methyl]-morpholine-4-carboxamide]
≥ 80%: pest or weed control at 200 ppm (Phakopsora Pachyrhizi) | pest or weed control at 200 ppm [1] | inhibition of growth at 20 ppm [3]

COCCC(=O)N(Cc1ccc(-c2noc(C(F)(F)F)n2)cc1)CC(F)(F)F [Compound 1.693, 3-methoxy-N-(2,2,2-trifluoroethyl)-N-[[4-[5-(trifluoromethyl)-1,2,4-oxadiazol-3-yl]phenyl]methyl]-propanamide]
≥ 80%: pest or weed control at 200 ppm (Phakopsora Pachyrhizi) | pest or weed control at 200 ppm [1] | inhibition of growth at 20 ppm [3]

CCCC(=O)N(Cc1ccc(-c2noc(C(F)(F)F)n2)cc1)CC1CC1 [Compound 1.210, N-(cyclopropylmethyl)-N-[[4-[5-(trifluoromethyl)-1,2,4-oxadiazol-3-yl]phenyl]methyl]-butanamide]
≥ 80%: pest or weed control at 200 ppm (Phakopsora Pachyrhizi) | pest or weed control at 200 ppm [1] | inhibition of growth at 20 ppm [3]

CON(Cc1ccc(-c2noc(C(F)(F)F)n2)cc1)C(=O)c1ccc(Cl)cc1 [Compound 1.71, 4-chloro-N-methoxy-N-[[4-[5-(trifluoromethyl)-1,2,4-oxadiazol-3-yl]phenyl]methyl]-benzamide]
≥ 80%: pest or weed control at 200 ppm (Phakopsora Pachyrhizi) | pest or weed control at 200 ppm [1] | inhibition of growth at 20 ppm [3]

CCC(=O)N(Cc1ccc(-c2noc(C(F)(F)F)n2)cn1)OC [Compound 1.571, N-methoxy-N-[[5-[5-(trifluoromethyl)-1,2,4-oxadiazol-3-yl]-2-pyridyl]methyl]-propanamide]
≥ 80%: pest or weed control at 200 ppm (Phakopsora Pachyrhizi) | pest or weed control at 200 ppm [1] | inhibition of growth at 20 ppm [3]

CON(Cc1ccc(-c2noc(C(F)(F)F)n2)cc1)C(=O)C1(c2ccccc2)CC1 [Compound 1.23, N-methoxy-1-phenyl-N-[[4-[5-(trifluoromethyl)-1,2,4-oxadiazol-3-yl]phenyl]methyl]-cyclopropane-carboxamide]
≥ 80%: pest or weed control at 200 ppm (Phakopsora Pachyrhizi) | pest or weed control at 200 ppm [1] | inhibition of growth at 20 ppm [3]

O=C(C1CC1)N(Cc1ccc(-c2noc(C(F)(F)F)n2)cc1)CC(F)(F)F [Compound 1.586, N-(2,2,2-trifluoroethyl)-N-[[4-[5-(trifluoromethyl)-1,2,4-oxadiazol-3-yl]phenyl]methyl]-cyclopropane-carboxamide]
≥ 80%: pest or weed control at 200 ppm (Phakopsora Pachyrhizi) | pest or weed control at 200 ppm [1] | inhibition of growth at 20 ppm [3]
